Measured values published in PubChem BioAssay (NCI).
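How tested: cells in 96-well plates exposed to compound for 48 hours at five concentrations. GI50 is the concentration that inhibits growth by half. TGI: concentration producing complete growth inhibition.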

Tests used:
Test in all cases: DTP human tumour cell line panel, 48 h
CAKI-1 renal = tested on: CAKI-1 renal
LOX IMVI melanoma = tested on: LOX IMVI melanoma
MALME-3M melanoma = tested on: MALME-3M melanoma
MDA-MB-435 = tested on: MDA-MB-435
PC-3 prostate = tested on: PC-3 prostate
UACC-257 melanoma = tested on: UACC-257 melanoma
SF-295 CNS = tested on: SF-295 CNS
NCI/ADR-RES ovarian = tested on: NCI/ADR-RES ovarian
NCI-H226 lung = tested on: NCI-H226 lung
HS 578T breast = tested on: HS 578T breast
NCI-H23 lung = tested on: NCI-H23 lung
HT29 colon = tested on: HT29 colon
NCI-H522 lung = tested on: NCI-H522 lung
HL-60(TB) leukemia = tested on: HL-60(TB) leukemia
SK-OV-3 ovarian = tested on: SK-OV-3 ovarian
M14 melanoma = tested on: M14 melanoma
HCT-116 colon = tested on: HCT-116 colon
SK-MEL-2 melanoma = tested on: SK-MEL-2 melanoma
U251 CNS = tested on: U251 CNS
UACC-62 melanoma = tested on: UACC-62 melanoma
RXF 393 renal = tested on: RXF 393 renal
NCI-H460 lung = tested on: NCI-H460 lung
786-0 renal = tested on: 786-0 renal
SF-539 CNS = tested on: SF-539 CNS
SK-MEL-28 melanoma = tested on: SK-MEL-28 melanoma
SF-268 CNS = tested on: SF-268 CNS
SK-MEL-5 melanoma = tested on: SK-MEL-5 melanoma
HOP-92 NSCLC = tested on: HOP-92 NSCLC
KM12 colon = tested on: KM12 colon
CCRF-CEM leukemia = tested on: CCRF-CEM leukemia
T-47D breast = tested on: T-47D breast
COLO 205 colon = tested on: COLO 205 colon
MDA-MB-231 breast = tested on: MDA-MB-231 breast
SNB-19 CNS = tested on: SNB-19 CNS
HCT-15 colon = tested on: HCT-15 colon
MOLT-4 leukemia = tested on: MOLT-4 leukemia
OVCAR-8 ovarian = tested on: OVCAR-8 ovarian
UO-31 renal = tested on: UO-31 renal
K-562 leukemia = tested on: K-562 leukemia
IGROV1 ovarian = tested on: IGROV1 ovarian
SR leukemia = tested on: SR leukemia
OVCAR-4 ovarian = tested on: OVCAR-4 ovarian
A498 renal = tested on: A498 renal
SN12C renal = tested on: SN12C renal
ACHN renal = tested on: ACHN renal
MCF7 breast = tested on: MCF7 breast
SNB-75 CNS = tested on: SNB-75 CNS
OVCAR-5 ovarian = tested on: OVCAR-5 ovarian
RPMI-8226 leukemia = tested on: RPMI-8226 leukemia
OVCAR-3 ovarian = tested on: OVCAR-3 ovarian
SW-620 colon = tested on: SW-620 colon
BT-549 breast = tested on: BT-549 breast
EKVX NSCLC = tested on: EKVX NSCLC
HOP-62 NSCLC = tested on: HOP-62 NSCLC
TK-10 renal = tested on: TK-10 renal
A549 NSCLC = tested on: A549 NSCLC
HCC-2998 colon = tested on: HCC-2998 colon

## CC[C@]1(O)C[C@@H]2CN(CCc3c([nH]c4ccccc34)[C@@](C(=O)OC)(c3cc4c(cc3OC)N(C)[C@H]3[C@@](O)(C(=O)OC)[C@H](OC(C)=O)[C@]5(CC)C=CCN6CC[C@]43[C@@H]65)C2)C1
CAKI-1 renal
  GI50: < 0.01 µM
  TGI: 4.65 µM
LOX IMVI melanoma
  GI50: < 0.01 µM
  TGI: 14.8 µM
MALME-3M melanoma
  GI50: < 0.01 µM
  TGI: 14.1 µM
MDA-MB-435
  GI50: < 0.01 µM
  TGI: < 0.01 µM
PC-3 prostate
  GI50: < 0.01 µM
  TGI: 22.2 µM
UACC-257 melanoma
  GI50: 14.6 µM
  TGI: 37.8 µM
SF-295 CNS
  GI50: < 0.01 µM
  TGI: 0.991 µM
NCI/ADR-RES ovarian
  GI50: < 0.0445 µM
  TGI: 2.68 µM
NCI-H226 lung
  TGI: 17.7 µM
HS 578T breast
  GI50: < 0.01 µM
  TGI: 10.8 µM
NCI-H23 lung
  GI50: < 0.01 µM
  TGI: > 100 µM
HT29 colon
  GI50: < 0.01 µM
  TGI: 18.9 µM
NCI-H522 lung
  GI50: < 0.01 µM
HL-60(TB) leukemia
  GI50: < 0.01 µM
  TGI: < 0.01 µM
SK-OV-3 ovarian
  TGI: 45 µM
M14 melanoma
  GI50: < 0.01 µM
  TGI: 4.31 µM
HCT-116 colon
  GI50: < 0.01 µM
  TGI: 15 µM
SK-MEL-2 melanoma
  GI50: < 0.0149 µM
  TGI: 20.2 µM
U251 CNS
  GI50: < 0.01 µM
  TGI: 20.5 µM
UACC-62 melanoma
  GI50: < 0.01 µM
  TGI: 17.4 µM
RXF 393 renal
  GI50: < 0.01 µM
  TGI: 3.77 µM
NCI-H460 lung
  GI50: < 0.01 µM
  TGI: 15.1 µM
786-0 renal
  GI50: < 0.01 µM
  TGI: 14.5 µM
SF-539 CNS
  GI50: < 0.01 µM
  TGI: < 0.01 µM
SK-MEL-28 melanoma
  GI50: 11.1 µM
  TGI: 28 µM
SF-268 CNS
  GI50: < 0.0281 µM
  TGI: 19.5 µM
SK-MEL-5 melanoma
  GI50: < 0.01 µM
  TGI: < 0.0385 µM
HOP-92 NSCLC
  GI50: < 0.01 µM
KM12 colon
  GI50: < 0.01 µM
  TGI: 14.4 µM
CCRF-CEM leukemia
  GI50: < 0.01 µM
  TGI: > 49.3 µM
T-47D breast
  GI50: 8.59 µM
  TGI: > 100 µM
COLO 205 colon
  GI50: < 0.01 µM
  TGI: < 0.0194 µM
MDA-MB-231 breast
  GI50: < 0.01 µM
  TGI: 11.2 µM
SNB-19 CNS
  GI50: < 0.01 µM
  TGI: > 100 µM
HCT-15 colon
  GI50: < 0.0116 µM
  TGI: 14.6 µM
MOLT-4 leukemia
  GI50: < 0.01 µM
  TGI: 21.3 µM
OVCAR-8 ovarian
  GI50: < 0.01 µM
  TGI: > 100 µM
UO-31 renal
  GI50: 0.175 µM
  TGI: 19.1 µM
K-562 leukemia
  GI50: < 0.01 µM
  TGI: 14.6 µM
IGROV1 ovarian
  GI50: < 0.01 µM
  TGI: 13 µM
SR leukemia
  GI50: < 0.01 µM
  TGI: 19.6 µM
OVCAR-4 ovarian
  TGI: > 100 µM
A498 renal
  GI50: < 0.01 µM
  TGI: < 0.01 µM
SN12C renal
  GI50: < 0.01 µM
  TGI: 35.7 µM
ACHN renal
  GI50: < 0.0324 µM
  TGI: 73.9 µM
MCF7 breast
  GI50: < 0.01 µM
  TGI: 32.3 µM
SNB-75 CNS
  GI50: < 0.01 µM
  TGI: 0.592 µM
OVCAR-5 ovarian
  GI50: < 0.01 µM
  TGI: 87.7 µM
RPMI-8226 leukemia
  GI50: < 0.01 µM
  TGI: 8.54 µM
OVCAR-3 ovarian
  GI50: < 0.01 µM
  TGI: < 0.01 µM
SW-620 colon
  GI50: < 0.01 µM
  TGI: > 100 µM
BT-549 breast
  GI50: < 0.01 µM
  TGI: 8.4 µM
EKVX NSCLC
  TGI: > 79 µM
HOP-62 NSCLC
  GI50: < 0.01 µM
  TGI: 24.1 µM
TK-10 renal
  GI50: 6.02 µM
  TGI: 26.9 µM
A549 NSCLC
  GI50: < 0.01 µM
  TGI: > 100 µM
HCC-2998 colon
  GI50: < 0.01 µM
  TGI: 7.74 µM
